Patent publication US20260028338A1, “HETEROBIFUNCTIONAL COMPOUNDS AND METHODS OF TREATING DISEASE” (Halda Therapeutics OpCo, Inc., priority 2023, published 2026)
pIC50, pKd: −log10 of the molar value.

Tests used:
Su-DHL-4 cell line = experiment: Cellular growth inhibition assay, Su-DHL-4 cells (CellTiter-Glo); format: cell-based; conditions: Homo sapiens; Su-DHL-4 cell line (DLBCL), 72 hours, CellTiter-Glo 2.0
Protocol: Exemplary compounds were tested for ability to inhibit the proliferation of Su-DHL-4 and Farage cells. Su-DHL-4 and Farage cells are commercially available diffuse large B cell lymphoma cell lines (DLBCL).
Su-DHL-4 and Farage cells were purchased from American Type Cell Culture (ATCC Cat #CRL-2957/CRL-2630) and then seeded on poly-D-lysine coated, black clear-bottom 384-well plates at 3000/well in 25 μL Roswell Park Memorial Institute media (RPMI-1640) supplemented with 10% w/w Fetal bovine serum (FBS) and 1% w/w Pen-Strep. Pen-Strep is a commercially available mixture of penicillin G and streptomycin, which is used in mammalian cell culture media to prevent bacterial contamination. Roswell Park Memorial Institute media (RPMI-1640) supplemented with 10% w/w fetal bovine serum (FBS), and 1% w/w Pen-Strep is herein referred to as Treatment Medium. Following seeding of cells in the plates, the plates were spun at 300×g for 30 seconds, then equilibrated to room temperature for 30 minutes, and then deposited in a humidified tissue culture incubator maintained at 37° C. with 5% CO2.
At 24 hours after seeding of the cells, dilutions of test compound were prepared in DMSO and dissolved in Treatment Medium, to achieve a final DMSO concentration of 0.5% w/w, thereby providing the Test Compound Solution. A 25 μL aliquot of the Test Compound Solution was added to cells in the well plates. An equal volume of a solution containing DMSO and Treatment Medium was used as a negative control. Following treatment of cells with Test Compound Solution or said equal volume of a solution containing DMSO and Treatment Medium, the plates were spun at 300×g for 30 seconds, and then left in an incubator for 72 hours.
At the end of the treatment duration, cell viability was quantified with CellTiter-Glo 2.0 reagent (Promega Cat #G9243). For this purpose, plates were equilibrated to room temperature for 30 minutes, and then 25 μL of CellTiter-Glo 2.0 reagent was added to cells in the plate wells. Plates were then agitated on a shaker for two minutes at 500 rpm and subsequently incubated at room temperature for 10 minutes. Following incubation, the plates were spun at 3000×g for 30 seconds, then sealed with an optical adhesive cover, and luminescence readings were measured with an EnVision Plate Reader (Perkin Elmer).
Data was normalized using zero luminescence for baseline. A four-parameter non-linear regression curve fit was applied to dose-response data in GraphPad Prism data analysis software to determine the half-maximal growth inhibitory concentration (GI50) for each test compound.

[1] = molecular target: T1, biotinylated BCL6 (5-129) (Homo sapiens, UniProt P41182); experiment: SPR assay for binding affinity to BCL6; conditions: Biacore 8K, 25° C., immobilized biotinylated BCL6 (5-129)
T1 construct: biotinylated BCL6 (5-129) was diluted in 10 mM HEPES pH 7.4; biotin (biotinylated)
Protocol: Exemplary compounds were tested for ability to bind to B-cell lymphoma 6 (BCL6) protein.
Binding studies by surface plasmon resonance (SPR) were performed using a Biacore 8K (Cytiva) instrument at 25° C. Briefly, biotinylated BCL6 (5-129) was diluted in 10 mM HEPES pH 7.4, 150 mM NaCl, 0.05% Surfactant P20, 0.5 mM TCEP, 3% DMSO to 1-5 μg/mL and was immobilized on an SA sensor chip (Cytiva, BR100032), resulting in surface densities at 1000-3000 resonance units (RUs). Test compounds were serially diluted five times in the same buffer and were injected to the immobilized surface. Kinetic determination experiments were performed using single-cycle kinetics with 110-120 s contact time, 1000-4000 s dissociation time, 30 μL/min flow rate. Binding data were analyzed by using Biacore insight evaluation software to determine KD values for test compounds.

Farage cell line = experiment: Cellular growth inhibition assay, Farage cells (CellTiter-Glo); format: cell-based; conditions: Farage cell line (DLBCL), 72 hours, CellTiter-Glo 2.0
In short: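 DLBCL lines Su-DHL-4 and Farage were seeded at 3000 cells/well in RPMI-1640 with 10% FBS. Compound dilutions (final DMSO 0.5%) were added 24 h later and incubated 72 h at 37C. Viability was read by CellTiter-Glo 2.0 luminescence, and GI50 came from four-parameter fits.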

[2] = molecular target: T2, His-tagged BRD4 BD2 (333-460) (Homo sapiens, UniProt O60885); experiment: AlphaLISA competition assay, BRD4 BD2; format: binding; conditions: BRD4-BD2, AlphaLISA competition with biotinylated histone H4K5/8/12/16(Ac) peptide, 20 nM
T2 construct: The same assay was developed for His-tagged BRD4 BD2 (333-460) and biotinylated histone H4K5/8/12/16(Ac) peptide
In short: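 His-tagged BRD4 BD2 (333-460) and biotinylated H4K5/8/12/16(Ac) peptide at 20 nM final, in 20 mM HEPES pH 7.5, 100 mM NaCl, 0.5 mM TCEP, 0.1% BSA, 0.02% CHAPS. Compounds incubated 1 h at room temperature, then streptavidin acceptor and nickel chelate donor beads added. IC50 derived from AlphaLISA signal.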

[3] = tested on: T-Rex 293 cell line SC cells having increased expression of BCL6 protein; experiment: Cellular growth inhibition assay, T-Rex 293 SC cells with doxycycline (CellTiter-Glo); format: cell-based; conditions: T-Rex 293 SC cells with 10 ng/mL doxycycline (increased BCL6 expression), 72 hours, CellTiter-Glo 2.0
[4] = tested on: T-Rex 293 cell line SC cells lacking increased expression of BCL6 protein; experiment: Cellular growth inhibition assay, T-Rex 293 SC cells without doxycycline (CellTiter-Glo); format: cell-based; conditions: T-Rex 293 SC cells not exposed to doxycycline (no increased BCL6 expression), 72 hours, CellTiter-Glo 2.0
[5] = molecular target: T3, His-tagged BRD4 BD1 (46-168) (Homo sapiens, UniProt O60885); experiment: AlphaLISA competition assay, BRD4 BD1; format: binding; conditions: BRD4-BD1, AlphaLISA competition with biotinylated histone H4K5/8/12/16(Ac) peptide, 10 nM
T3 construct: His-tagged BRD4 BD1 (46-168) and biotinylated histone H4K5/8/12/16(Ac) peptide
In short: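 His-tagged BRD4 BD1 (46-168) and biotinylated H4K5/8/12/16(Ac) peptide, each 10 nM final, in 20 mM HEPES pH 7.5, 100 mM NaCl, 0.5 mM TCEP, 0.1% BSA, 0.02% CHAPS; compounds incubated 1 h at room temperature. Streptavidin acceptor and Ni-chelate donor beads added; IC50 from AlphaLISA signal.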

Structure (SMILES)	GI50 (Su-DHL-4 cell line)	pKd [1]	GI50 (Farage cell line)	pIC50 [2]	GI50 [3]	GI50 [4]	pIC50 [5]
CNC(=O)COc1cc2cc(Nc3nc(N4CCC(CCN5CCN(CCN(C)[C@H]6C[C@H](Oc7ccc(C(C)(C)O)cc7-c7cn(C)c(=O)c8[nH]ccc78)C6)CC5)CC4)ncc3Cl)ccc2n(C)c1=O [Compound I-21]	< 500 nM	8.00 to 9.00	< 500 nM	> 8.30	< 500 nM	1500 to 3000 nM	> 8.30
CNC(=O)COc1cc2cc(Nc3nc(N4CCC(CC5CN(CC6CC(Oc7ccc(C(C)(C)O)cc7-c7cn(C)c(=O)c8[nH]ccc78)C6)C5)CC4)ncc3Cl)ccc2n(C)c1=O (stereo not drawn) [Compound I-22, 2-[[6-[[5-chloro-2-[4-[[1-[[3-[4-(1-hydroxy-1-methyl-ethyl)-2-(6-methyl-7-oxo-1H-pyrrolo[2,3-c]pyridin-4-yl)phenoxy]cyclobutyl]methyl]azetidin-3-yl]methyl]-1-piperidyl]pyrimidin-4-yl]amino]-1-methyl-2-oxo-3-quinolyl]oxy]-N-methyl-acetamide]	< 500 nM	8.00 to 9.00	< 500 nM	> 8.30	< 500 nM	< 500 nM	> 8.30
CCS(=O)(=O)Nc1ccc(Oc2cccc(OCCN3CCN(CCN4CCN(c5ncc(Cl)c(Nc6ccc7c(c6)cc(OCC(=O)NC)c(=O)n7C)n5)CC4)CC3)c2)c(-c2cn(C)c(=O)c3[nH]ccc23)c1 [Compound I-15]	< 500 nM	8.00 to 9.00	< 500 nM	> 8.30	< 500 nM	500 to 1500 nM	> 8.30
